# What was measured:
# rat [1] = details: Fertility (Segment I), Oral, Gavage/Intubation, dose end: 1 generation
# rat [2] = details: Sub-acute repeat dose toxicity, sprague dawley, Oral, Gavage/Intubation, dose end: 15 day, group: systemic
# rat [3] = details: Chronic toxicity; sprague dawley; Oral; Gavage/Intubation; dose end: 182 day; group: systemic; systemic / clinical chemistry / [other] / [other] + systemic / clinical chemistry / cholesterol / cholesterol + systemic / clinical …
# dog [4] = details: Sub-acute repeat dose toxicity, beagle, Oral, Gavage/Intubation, dose end: 22 day, group: systemic
# rat [5] = details: Prenatal developmental toxicity study, Oral, Gavage/Intubation, dose end: 18 GD
# rat [6] = details: Sub-acute repeat dose toxicity; Oral; Gavage/Intubation; dose end: 36 day; group: systemic; systemic / in life observation / body weight / body weight + systemic / in life observation / food consumption / food consumption
# rat [7] = details: Subchronic oral toxicity in rodents, sprague dawley, Gavage/Intubation, dose end: 93 day, group: systemic
# dog [8] = details: Subchronic oral toxicity in nonrodent, beagle, Gavage/Intubation, dose end: 94 day, group: systemic
# rat [9] = details: Sub-acute repeat dose toxicity, sprague dawley, Oral, Gavage/Intubation, dose end: 15 day, group: systemic; remark: listed apart in the source
# rabbit [10] = details: Sub-acute repeat dose toxicity, new zealand white, Oral, Gavage/Intubation, dose end: 5 day, group: systemic
# dog [11] = details: Chronic toxicity, beagle, Oral, Gavage/Intubation, dose end: 272 day, group: systemic
# rabbit [12] = details: Prenatal developmental toxicity study, Oral, Gavage/Intubation, dose end: 20 GD, group: maternal
# rabbit [13] = details: Prenatal developmental toxicity study, Oral, Gavage/Intubation, dose end: 20 GD, group: maternal; remark: listed apart in the source
# rat [14] = details: Sub-acute repeat dose toxicity; sprague dawley; Oral; Gavage/Intubation; dose end: 5 day; group: systemic; systemic / clinical chemistry / aspartate aminotransferase (ast/sgot) / aspartate aminotransferase (ast/sgot) + systemic / in life …
# rat [15] = details: Prenatal developmental toxicity study, Oral, Gavage/Intubation, dose end: 21 GD
# [16] = group: maternal, reproductive / reproductive performance / estrous cycle / corpora lutea + reproductive / reproductive performance / implantations / …
# [17] = group: parental, systemic / in life observation / body weight / body weight + systemic / in life observation / body weight / body weight gain + systemic / in…
# [18] = systemic / clinical chemistry / [other] / [other] + systemic / clinical chemistry / cytochrome p450, nos / cytochrome p450, nos + systemic…
# [19] = systemic / in life observation / body weight / body weight gain + systemic / in life observation / food consumption / food consumption + …
# [20] = systemic / clinical chemistry / alkaline phosphatase (alp/alk) / alkaline phosphatase (alp/alk) + systemic / in life observation / clinical …
# [21] = group: developmental, systemic / in life observation / body weight / fetal weight
# [22] = group: maternal, systemic / in life observation / body weight / body weight gain + systemic / in life observation / clinical signs / alopecia + systemic / in…
# [23] = systemic / in life observation / body weight / body weight gain + systemic / clinical chemistry / [other] / [other] + systemic / clinical …
# [24] = systemic / organ weight / liver / absolute
# [25] = systemic / organ weight / liver / absolute + systemic / clinical chemistry / [other] / [other] + systemic / clinical chemistry / alkaline …
# [26] = systemic / in life observation / body weight / body weight + systemic / in life observation / clinical signs / alopecia + systemic / in life…
# [27] = systemic / in life observation / body weight / body weight + systemic / in life observation / clinical signs / altered breathing rate + …
# [28] = systemic / in life observation / clinical signs / altered breathing rate + systemic / in life observation / clinical signs / convulsions + …
# [29] = systemic / in life observation / mortality / mortality + systemic / in life observation / body weight / body weight gain + systemic / in …
# [30] = group: maternal, systemic / in life observation / body weight / body weight gain + systemic / in life observation / food consumption / food consumption + …
smiles,measurement,setting,value
COc1ccc(OC(F)(F)F)cc1CN[C@H]1CCCN[C@H]1c1ccccc1,LEL,rat [1]; [16],150 mg/kg/day
same,LOAEL,rat [1]; [16],> 150 mg/kg/day
same,NEL,rat [1]; [16],50 mg/kg/day
same,NOAEL,rat [1]; [16],≥ 150 mg/kg/day
same,LOAEL,rat [1]; [17],> 150 mg/kg/day
same,NEL,rat [1]; [17],5 mg/kg/day
same,NOAEL,rat [1]; [17],≥ 150 mg/kg/day
same,LEL,"rat [1]; group: parental, systemic / in life observation / body weight / body weight gain + systemic / in life observation / clinical signs / alopecia + systemic / in…",50 mg/kg/day
same,LEL,rat [2]; [18],100 mg/kg/day
same,NEL,rat [2]; [18],< 100 mg/kg/day
same,LOAEL,rat [2]; [19],> 200 mg/kg/day
same,NOAEL,rat [2]; [19],≥ 200 mg/kg/day
same,LEL,rat [3],30 mg/kg/day
same,LOAEL,rat [3],> 100 mg/kg/day
same,NEL,rat [3],5 mg/kg/day
same,NOAEL,rat [3],≥ 100 mg/kg/day
same,LEL,dog [4]; systemic / clinical chemistry / alkaline phosphatase (alp/alk) / alkaline phosphatase (alp/alk),10 mg/kg/day
same,LOAEL,dog [4]; [20],> 30 mg/kg/day
same,NOAEL,dog [4]; [20],≥ 30 mg/kg/day
same,LEL,rat [5]; [21],150 mg/kg/day
same,LOAEL,rat [5]; [21],> 150 mg/kg/day
same,NOAEL,rat [5]; [21],≥ 150 mg/kg/day
same,LEL,rat [5]; [22],75 mg/kg/day
same,LOAEL,rat [5]; [22],> 150 mg/kg/day
same,NEL,rat [5]; [22],15 mg/kg/day
same,NOAEL,rat [5]; [22],≥ 150 mg/kg/day
same,LEL,rat [6],50 mg/kg/day
same,LOAEL,rat [6],> 50 mg/kg/day
same,NEL,rat [6],20 mg/kg/day
same,NOAEL,rat [6],≥ 50 mg/kg/day
same,LEL,rat [7]; systemic / clinical chemistry / 5' nucleotidase / 5' nucleotidase + systemic / clinical chemistry / aspartate aminotransferase (ast/sgot) / …,30 mg/kg/day
same,LOAEL,rat [7]; [23],> 150 mg/kg/day
same,NOAEL,rat [7]; [23],≥ 150 mg/kg/day
same,LEL,dog [8]; [24],1 mg/kg/day
same,NEL,dog [8]; [24],< 1 mg/kg/day
same,LOAEL,dog [8]; [25],> 20 mg/kg/day
same,NOAEL,dog [8]; [25],≥ 20 mg/kg/day
same,LEL,rat [9]; [18],50 mg/kg/day
same,NEL,rat [9]; [18],10 mg/kg/day
same,LOAEL,rat [9]; [26],> 400 mg/kg/day
same,NOAEL,rat [9]; [26],≥ 400 mg/kg/day
same,LOAEL,rabbit [10]; [27],> 200 mg/kg/day
same,NEL,rabbit [10]; [27],20 mg/kg/day
same,NOAEL,rabbit [10]; [27],≥ 200 mg/kg/day
same,LEL,rabbit [10]; systemic / in life observation / body weight / body weight + systemic / in life observation / food consumption / food consumption,100 mg/kg/day
same,LOAEL,dog [11]; [20],> 20 mg/kg/day
same,NOAEL,dog [11]; [20],≥ 20 mg/kg/day
same,LEL,dog [11]; systemic / in life observation / clinical signs / salivation,6 mg/kg/day
same,LOAEL,rabbit [12]; [28],> 75 mg/kg/day
same,NEL,rabbit [12]; [28],25 mg/kg/day
same,NOAEL,rabbit [12]; [28],≥ 75 mg/kg/day
same,LEL,rabbit [12]; systemic / in life observation / food consumption / food consumption,50 mg/kg/day
same,LEL,rabbit [13]; systemic / in life observation / mortality / mortality,15 mg/kg/day
same,LOAEL,rabbit [13]; [29],> 50 mg/kg/day
same,NEL,rabbit [13]; [29],5 mg/kg/day
same,NOAEL,rabbit [13]; [29],≥ 50 mg/kg/day
same,LEL,rat [14],400 mg/kg/day
same,LOAEL,rat [14],> 1000 mg/kg/day
same,NEL,rat [14],< 400 mg/kg/day
same,NOAEL,rat [14],≥ 1000 mg/kg/day
same,LEL,rat [15]; [21],100 mg/kg/day
same,LOAEL,rat [15]; [21],> 100 mg/kg/day
same,NOAEL,rat [15]; [21],≥ 100 mg/kg/day
same,LEL,rat [15]; [30],30 mg/kg/day
same,LOAEL,rat [15]; [30],> 100 mg/kg/day
same,NEL,rat [15]; [30],10 mg/kg/day
same,NOAEL,rat [15]; [30],≥ 100 mg/kg/day
